According to patent publication US4871661A, “Process for testing the carcinogenicity of a material or the presence of cancer-inducing factors in an environment” (priority 1985, dated 1989):
Like-named read-outs stand apart in the source and are kept apart here.

Experiments:
[1] = system: cancer-associated phosphoprotein; settings: for induction of the cancer-associated phosphoprotein in the plasma: rat plasma, result in words
[2] = system: cancer-associated phosphoprotein; assay: ELISA assay of purified 60K plasma protein fraction from rats exposed to test compound; format: in vivo, rat (Sprague-Dawley strain)
Description: This example illustrates a process of the present invention in which the assay for the cancer-associated phosphoprotein is effected by means of an ELISA test.
Samples of the purified 60K protein fraction from the Sepharose CL-6B column used in Example 1 above were subjected to an ELISA assay. […] Also subjected to the same ELISA assay were purified protein fractions from the control rats and from a rat suffering from a hepatoma 7777 tumor.
The ELISA assay was conducted in the following manner. A sample of the cancer-associated phosphoprotein prepared in the manner described in Example 1 of the aforementioned parent application Ser. No. 554,439 was bound to a well in a plastic tray, and the well thereafter washed thoroughly. A polyclonal rabbit antibody serum prepared as described in Example 2 of the aforementioned parent application Ser. No. 554,439 was then mixed with the protein sample to be assayed and the resultant mixture incubated at 37° C. for 30 minutes. The mixture was then added to the well containing the cancer-associated phosphoprotein, and the tray incubated for one hour at 37° C., then washed thoroughly. Following this washing, there was added to the well a goat anti-rabbit IgG antibody serum conjugated to horseradish peroxidase enzyme, and the tray was incubated for one hour at 37° C. then washed thoroughly. The substrate for the horseradish peroxidase enzyme, namely 2,2-azino-di(3-ethylbenzthiazoline sulfonic acid) was added to the well and the tray incubated to 15 minutes at room temperature. The color development was then stopped by addition of a 2 mM solution of sodium azide and the intensity of the color in the wells determined using a spectrophotometer at […].
To determine the maximum possible optical density, a control test was run in which the test sample was replaced with a buffer containing no cancer-associated phosphoprotein; this optical density represents the maximum possible reaction of uninhibited antibody binding to the bound cancer-associated phosphoprotein. […] The optical density of a well containing as a control sample an equivalent fraction of normal rat plasma free of cancer-associated phosphoprotein is designated 0% inhibition; the optical density of this control sample should be close to that of the sample using the buffer solution The samples tested for the presence of the cancer-associated phosphoprotein are designated positive when the optical density exceeds that of the control value by two standard deviations. The concentration of cancer-associated phosphoprotein is directly related to the percentage inhibition and can be compared to that of the standard solution of the cancer-associated phosphoprotein.

rat = settings: cited from earlier work
[3] = system: cancer-associated phosphoprotein; format: in vivo, rat; settings: acute or chronic treatment of rats
Source text: Further experiments indicate that release of the cancer-associated phosphoprotein into the plasma was not induced upon induction of liver regeneration in the rat by partial hepatectomy, nor by acute or chronic treatment of the rats with the non-carcinogenic tumor promoter phenobarbital.

transformed cells = settings: some types of transformed cells; cited from earlier work
[4] = 160 micromoles/kg, intraperitoneal, plasma ~21 days after exposure, control subtracted
[5] = ELISA inhibition, plasma fraction of treated rat, standard phosphoprotein solution = 100%, normal rat plasma fraction = 0%
[6] = 200 micromoles/kg, intraperitoneal, plasma ~21 days after exposure, control subtracted
[7] = 210 micromoles/kg, intraperitoneal, plasma ~21 days after exposure, control subtracted
[8] = 1 millimole/kg, intraperitoneal, plasma ~21 days after exposure, control subtracted
[9] = 600 micromoles/kg, intraperitoneal, plasma ~21 days after exposure, control subtracted

For `COc1cc2c(c3oc(=O)c4c(c13)CCOC4=O)[C@@H]1CCO[C@@H]1O2` [Aflatoxin G2], the “RNA-releasing Activity” value ([1]; rat, in vivo, ip) was 3.80.

With `CCOC(N)=O` [Ethyl carbamate (urethane), Ethyl carbamate] the “RNA-releasing Activity” value ([1]; 11.2 millimoles/kg, intraperitoneal, plasma ~21 days after exposure, control subtracted) was 3.80 percent nuclear counts per min.

With `Nc1ccc2ccccc2c1` [2-Naphthylamine] the “RNA-releasing Activity” value ([1]; 500 micromoles/kg, intraperitoneal, plasma ~21 days after exposure, control subtracted) was 3.29 percent nuclear counts per min.

With `c1ccc2cc3c(ccc4ccccc43)cc2c1` [Benz[a]anthracene] the “RNA-releasing Activity” value [1, 4] was 4.92 percent nuclear counts per min.

In the case of `Cc1c2ccccc2c(C)c2c1ccc1ccccc12` [7,12-Dimethylbenz[a]anthracene], the “RNA-releasing Activity” value [1, 4] is reported as 6.42 percent nuclear counts per min.

In the case of `CCCCN(CCCC)N=O` [N--Nitroso-N,N--dibutylamine], the “Percentage Inhibition” value [2, 5] is reported as 75% and the “RNA-releasing Activity” value ([1]; 760 micromoles/kg, intraperitoneal, plasma ~21 days after exposure, control subtracted) is reported as 5.44 percent nuclear counts per min.

For `O=[N+]([O-])c1ccc2ccc3cccc4ccc1c2c34` [1-Nitropyrene], the “Percentage Inhibition” value [2, 5] was 74% and the “RNA-releasing Activity” value ([1]; 105 micromoles/kg, intraperitoneal, plasma ~21 days after exposure, control subtracted) was 5.30 percent nuclear counts per min.

For `c1cc2ccc3cccc4ccc(c1)c2c34` [Pyrene], the “RNA-releasing Activity” value [1, 4] was 0.05 percent nuclear counts per min.

For `c1ccc2cc3ccccc3cc2c1` [Anthracene], the “RNA-releasing Activity” value [1, 4] was 0.17 percent nuclear counts per min.

For `COc1cc2c(c3oc(=O)c4c(c13)CCC4=O)[C@@H]1C=CO[C@@H]1O2` [Aflatoxin B1], the “RNA-releasing Activity” value ([1]; rat, in vivo) was 4.37.

In the case of `CC(=O)Nc1ccc2c(c1)Cc1ccccc1-2` [2-Acetylaminofluorene], the “Percentage Inhibition” value [2, 5] is reported as 87% and the “RNA-releasing Activity” value [1, 6] is reported as 5.11 percent nuclear counts per min.

With `c1ccc2c(c1)c1cccc3ccc4cccc2c4c31` [Benzo[e]pyrene] the “RNA-releasing Activity” value [1, 7] was 3.37 percent nuclear counts per min.

In the case of `CCN(CC)N=O` [N--Nitroso-N,N--diethylamine], the “RNA-releasing Activity” value [1, 8] is reported as 4.21 percent nuclear counts per min.

With `ClC(Cl)(Cl)Cl` [Carbon tetrachloride, carbon tetrachloride] the “Percentage Inhibition” value ([2]; ELISA inhibition, plasma fraction of treated rat, standard phosphoprotein solution = 100%, normal rat plasma fraction = 0%, listed as Carbon tetrachloride-1) was 1% and the “Percentage Inhibition” value ([2]; ELISA inhibition, plasma fraction of treated rat, standard phosphoprotein solution = 100%, normal rat plasma fraction = 0%, listed as Carbon tetrachloride-2) was 10%.

For `CCN(N=O)C(N)=O` [N--Ethyl-N--nitrosourea], the “RNA-releasing Activity” value [1, 9] was 4.50 percent nuclear counts per min.

In the case of `c1ccc2c(c1)Cc1ccccc1-2` [Fluorene], the “RNA-releasing Activity” value [1, 4] is reported as 0.14 percent nuclear counts per min.

With `c1ccc2ccccc2c1` [Naphthalene] the “Percentage Inhibition” value [2, 5] was 18% and the “RNA-releasing Activity” value [1, 8] was 0.12 percent nuclear counts per min.

In the case of `Clc1cc2c(cc1Cl)Oc1cc(Cl)c(Cl)cc1O2` [2,3,7,8-Tetrachlorodibenzo-p-dioxine], the “RNA-releasing Activity” value ([1]; 0.125 micromoles/kg, intraperitoneal, plasma ~21 days after exposure, control subtracted) is given as 0.00 percent nuclear counts per min, the “induction of the cancer-associated phosphoprotein in the plasma” value (from here on “induction”) [1] is given as “do not induce significant quantities of the cancer-associated phosphoprotein” and the “toxicity in the rat” value (rat) is given as “very potent toxins in the rat”.

In the case of `Cc1cc2nc3c(=O)[nH]c(=O)nc-3n(C[C@H](O)[C@H](O)[C@H](O)CO)c2cc1C` [Riboflavin], the “Percentage Inhibition” value [2, 5] is reported as 11% and the “RNA-releasing Activity” value ([1]; 265 micromoles/kg, intraperitoneal, plasma ~21 days after exposure, control subtracted) is reported as 0.01 percent nuclear counts per min.

For `c1ccc2nc3ccccc3cc2c1` [Acridine], the “Percentage Inhibition” value [2, 5] was 2% and the “RNA-releasing Activity” value ([1]; 15 micromoles/kg, intraperitoneal, plasma ~21 days after exposure, control subtracted) was 0.00 percent nuclear counts per min.

For `CCC1(c2ccccc2)C(=O)NC(=O)NC1=O` [Phenobarbital], the “release of the cancer-associated phosphoprotein into the plasma” value [3] was “not induced” and the “RNA-releasing Activity” value ([1]; 80 micromoles/kg, intraperitoneal, plasma ~21 days after exposure, control subtracted) was 0.08 percent nuclear counts per min.

With `CNNC` [1,2-dimethylhydrazine] the “Percentage Inhibition” value [2, 5] was 79% and the “RNA-releasing Activity” value ([1]; 560 micromoles/kg, intraperitoneal, plasma ~21 days after exposure, control subtracted) was 5.71 percent nuclear counts per min.

For `c1ccc2c(c1)cc1ccc3cccc4ccc2c1c34` [Benzo[a]pyrene], the “RNA-releasing Activity” value [1, 7] was 7.73 percent nuclear counts per min.

In the case of `CN(C)N=O` [N--Nitroso-N,N--dimethylamine], the “RNA-releasing Activity” value ([1]; 135 micromoles/kg, intraperitoneal, plasma ~21 days after exposure, control subtracted) is reported as 3.40 percent nuclear counts per min.

In the case of `Cc1c(F)ccc2ccc3cc4ccccc4c(C)c3c12` [2-Fluoro-1,12-dimethylbenz[a]anthracene], the “RNA-releasing Activity” value [1, 4] is reported as 0.10 percent nuclear counts per min.

For `CN(N=O)C(N)=O` [N--Methyl-N--nitrosourea], the “RNA-releasing Activity” value ([1]; 440 micromoles/kg, intraperitoneal, plasma ~21 days after exposure, control subtracted) was 4.69 percent nuclear counts per min.

In the case of `Cn1c(=O)c2c(ncn2C)n(C)c1=O` [Caffeine], the “Percentage Inhibition” value ([2]; rat, in vivo) is reported as 14 and the “RNA-releasing Activity” value ([1]; rat, in vivo, ip) is reported as 0.07.

In the case of `Cc1ccc2cc3c(ccc4ccccc43)c3c2c1CC3` [3-Methylcholanthrene], the “RNA-releasing Activity” value [1, 4] is reported as 5.62 percent nuclear counts per min.

For `C=CCc1ccc2c(c1)OCO2` [Safrole], the “Percentage Inhibition” value [2, 5] was 80% and the “RNA-releasing Activity” value [1, 9] was 5.90 percent nuclear counts per min.

In the case of `O=C(O)C(F)(F)C(F)(F)C(F)(F)C(F)(F)C(F)(F)C(F)(F)C(F)(F)C(F)(F)C(F)(F)F` [Nonadecafluorodecanoic acid], the “RNA-releasing Activity” value ([1]; 50 micromoles/kg, intraperitoneal, plasma ~21 days after exposure, control subtracted) is given as 0.00 percent nuclear counts per min, the “induction” value [1] is given as “do not induce significant quantities of the cancer-associated phosphoprotein” and the “toxicity in the rat” value (rat) is given as “very potent toxins in the rat”.

For `CN(C)C=O` [Dimethylformamide], the “RNA-releasing Activity” value [1, 6] is listed as 1.30 percent nuclear counts per min, the “induction” value [1] is listed as “induced significant quantities” and the “ability to induce differentiation of transformed cells” value (transformed cells) is listed as “reversably induce the differentiation of some types of transformed cells”.
